In ChEMBL document CHEMBL1649421, “New drug-like hydroxyphenylnaphthol steroidomimetics as potent and selective 17β-hydroxysteroid dehydrogenase type 1 inhibitors for the treatment of estrogen-dependent diseases” (J Med Chem, 2011):

How the values were obtained:
Homo sapiens = organism: Homo sapiens; assay: Selectivity ratio of IC50 for human placental 17beta-HSD2 to IC50 for human placental 17beta-HSD1
[1] = Cmax in Wistar rat at 50 mg/kg, po administered as single dose by LC-MS/MS analysis; type: ADME, organism-based; set-up: dose 50 mg/kg, route oral; settings: in vivo
Cytochrome P450 1A2 = biological target: T1, Cytochrome P450 1A2 (Homo sapiens, UniProt P05177); assay: Inhibition of human CYP1A2; type: ADME
T1 sequence (P05177 whole entry): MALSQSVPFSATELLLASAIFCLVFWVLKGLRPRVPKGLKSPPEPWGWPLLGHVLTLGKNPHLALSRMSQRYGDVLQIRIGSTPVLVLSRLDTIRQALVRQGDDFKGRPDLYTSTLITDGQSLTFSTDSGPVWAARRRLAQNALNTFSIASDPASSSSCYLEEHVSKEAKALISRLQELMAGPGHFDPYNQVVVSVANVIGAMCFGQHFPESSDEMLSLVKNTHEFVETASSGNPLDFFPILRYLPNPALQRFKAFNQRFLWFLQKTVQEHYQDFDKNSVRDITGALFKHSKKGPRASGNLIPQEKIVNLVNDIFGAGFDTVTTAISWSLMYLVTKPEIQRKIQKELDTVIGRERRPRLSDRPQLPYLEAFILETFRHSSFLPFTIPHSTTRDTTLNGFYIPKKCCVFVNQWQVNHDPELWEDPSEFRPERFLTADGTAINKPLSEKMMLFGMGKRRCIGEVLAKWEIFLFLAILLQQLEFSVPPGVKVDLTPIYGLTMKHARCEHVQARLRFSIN

[2] = Half life in Sprague-Dawley rat liver microsomes by LC-MS/MS analysis; type: ADME, Microsome
Liver microsomes [3] = assay: Intrinsic clearance in Sprague-Dawley rat liver microsomes after 60 mins by LC-MS/MS analysis; type: ADME, Microsome; settings: 1 h
[4] = biological target: T2, 17-beta-hydroxysteroid dehydrogenase type 1 (Homo sapiens) (UniProt P14061); assay: Inhibition of [3H]E1 binding to human recombinant 17beta-HSD1 expressed in baculovirus-infected Sf9 cells at 100 nM after 10 mins by fluid scintillation counting
T2 sequence (whole entry): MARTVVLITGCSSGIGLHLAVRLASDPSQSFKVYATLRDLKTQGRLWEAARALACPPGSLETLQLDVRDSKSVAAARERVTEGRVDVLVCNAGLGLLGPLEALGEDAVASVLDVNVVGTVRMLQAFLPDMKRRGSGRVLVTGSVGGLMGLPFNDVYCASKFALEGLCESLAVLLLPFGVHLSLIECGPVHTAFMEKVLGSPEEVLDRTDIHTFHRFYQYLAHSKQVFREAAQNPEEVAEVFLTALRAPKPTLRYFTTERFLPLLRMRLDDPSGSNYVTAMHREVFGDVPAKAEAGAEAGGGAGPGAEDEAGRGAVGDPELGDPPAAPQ

[5] = biological target: Estrogen receptor beta (Homo sapiens) (UniProt Q92731); assay: Displacement of [3H]E2 from human recombinant ERbeta by liquid scintillation counting relative to estradiol
[6] = biological target: T3, 17-beta-hydroxysteroid dehydrogenase type 1 (Homo sapiens, UniProt P14061); assay: Displacement of [3H]E1 from human placental 17beta-HSD1 after 10 mins by fluid scintillation counting
T3 sequence (P14061 whole entry): T2 sequence (whole entry)

[7] = biological target: T4, 17-beta-hydroxysteroid dehydrogenase type 2 (Homo sapiens) (UniProt P37059); assay: Inhibition of [3H]E2 binding to human recombinant 17beta-HSD2 expressed in baculovirus-infected Sf9 cells at 100 nM after 10 mins by fluid scintillation counting
T4 sequence (whole entry): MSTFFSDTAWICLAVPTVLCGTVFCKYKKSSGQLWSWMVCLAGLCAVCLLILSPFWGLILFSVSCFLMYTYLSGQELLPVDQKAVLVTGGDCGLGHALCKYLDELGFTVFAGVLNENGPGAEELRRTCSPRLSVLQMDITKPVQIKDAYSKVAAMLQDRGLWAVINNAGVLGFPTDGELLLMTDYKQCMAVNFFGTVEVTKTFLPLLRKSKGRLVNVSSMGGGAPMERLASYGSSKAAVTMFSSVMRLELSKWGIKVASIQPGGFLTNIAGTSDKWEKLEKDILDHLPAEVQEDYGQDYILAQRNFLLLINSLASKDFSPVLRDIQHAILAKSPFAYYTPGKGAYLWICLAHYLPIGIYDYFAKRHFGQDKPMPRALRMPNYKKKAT

Rattus norvegicus [8] = assay: Tlast in Wistar rat at 50 mg/kg, po administered as single dose by LC-MS/MS analysis; type: ADME, organism-based; set-up: dose 50 mg/kg, route oral; settings: in vivo
[9] = biological target: T2, 17-beta-hydroxysteroid dehydrogenase type 1 (Homo sapiens); assay: Inhibition of [3H]E1 binding to human recombinant 17beta-HSD1 expressed in baculovirus-infected Sf9 cells at 1 uM after 10 mins by fluid scintillation counting
[10] = biological target: T4, 17-beta-hydroxysteroid dehydrogenase type 2 (Homo sapiens); assay: Inhibition of [3H]E2 binding to human recombinant 17beta-HSD2 expressed in baculovirus-infected Sf9 cells at 1 uM after 10 mins by fluid scintillation counting
[11] = Tmax in Wistar rat at 50 mg/kg, po administered as single dose by LC-MS/MS analysis; type: ADME, organism-based; set-up: dose 50 mg/kg, route oral; settings: in vivo
[12] = AUC (0 to t) in Wistar rat at 50 mg/kg, po administered as single dose by LC-MS/MS analysis; type: ADME, organism-based; set-up: dose 50 mg/kg, route oral; settings: plasma
[13] = biological target: T3, 17-beta-hydroxysteroid dehydrogenase type 1; assay: Displacement of [3H]E1 from 17beta-HSD1 in human T47D cells after 10 mins by fluid scintillation counting; type: cell-based
[14] = biological target: T5, Estrogen receptor (Homo sapiens) (UniProt P03372); assay: Displacement of [3H]E2 from human recombinant ERalpha by liquid scintillation counting relative to estradiol
T5 sequence (whole entry): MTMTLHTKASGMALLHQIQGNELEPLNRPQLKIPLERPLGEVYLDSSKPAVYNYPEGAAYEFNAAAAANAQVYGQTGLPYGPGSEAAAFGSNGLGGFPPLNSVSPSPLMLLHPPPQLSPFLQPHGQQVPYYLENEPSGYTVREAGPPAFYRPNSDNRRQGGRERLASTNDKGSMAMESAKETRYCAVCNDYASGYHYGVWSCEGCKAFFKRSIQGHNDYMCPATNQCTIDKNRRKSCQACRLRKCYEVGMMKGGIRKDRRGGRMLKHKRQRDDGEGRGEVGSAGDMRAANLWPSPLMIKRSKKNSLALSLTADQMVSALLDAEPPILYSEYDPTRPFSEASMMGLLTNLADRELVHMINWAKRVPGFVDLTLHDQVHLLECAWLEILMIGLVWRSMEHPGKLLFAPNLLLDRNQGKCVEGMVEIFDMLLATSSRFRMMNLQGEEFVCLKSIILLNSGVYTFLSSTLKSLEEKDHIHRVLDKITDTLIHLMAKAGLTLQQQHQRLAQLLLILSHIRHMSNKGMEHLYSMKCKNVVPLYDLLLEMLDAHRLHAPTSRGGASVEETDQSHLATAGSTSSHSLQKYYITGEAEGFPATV

[15] = biological target: T6, 17-beta-hydroxysteroid dehydrogenase type 2 (Homo sapiens, UniProt P37059); assay: Displacement of [3H]E2 from human placental 17beta-HSD2 after 10 mins by fluid scintillation counting
T6 sequence (P37059 whole entry): T4 sequence (whole entry)

Rattus norvegicus [16] = assay: Clast in Wistar rat at 50 mg/kg, po administered as single dose by LC-MS/MS analysis; type: ADME, organism-based; set-up: dose 50 mg/kg, route oral; settings: in vivo
[17] = Half life in Wistar rat at 50 mg/kg, po administered as single dose by LC-MS/MS analysis; type: ADME, organism-based; set-up: dose 50 mg/kg, route oral; settings: in vivo
[18] = Apparent permeability across human Caco2 cells after 180 mins by LC-MS/MS analysis; type: ADME, cell-based; settings: Caco-2
Liver microsomes [19] = assay: Metabolic stability in human liver microsomes up to 45 mins by LC-MS/MS analysis; type: ADME, Microsome; settings: 0.75 h

Chain of Estrogen receptor beta (Homo sapiens) (Q92731 whole entry): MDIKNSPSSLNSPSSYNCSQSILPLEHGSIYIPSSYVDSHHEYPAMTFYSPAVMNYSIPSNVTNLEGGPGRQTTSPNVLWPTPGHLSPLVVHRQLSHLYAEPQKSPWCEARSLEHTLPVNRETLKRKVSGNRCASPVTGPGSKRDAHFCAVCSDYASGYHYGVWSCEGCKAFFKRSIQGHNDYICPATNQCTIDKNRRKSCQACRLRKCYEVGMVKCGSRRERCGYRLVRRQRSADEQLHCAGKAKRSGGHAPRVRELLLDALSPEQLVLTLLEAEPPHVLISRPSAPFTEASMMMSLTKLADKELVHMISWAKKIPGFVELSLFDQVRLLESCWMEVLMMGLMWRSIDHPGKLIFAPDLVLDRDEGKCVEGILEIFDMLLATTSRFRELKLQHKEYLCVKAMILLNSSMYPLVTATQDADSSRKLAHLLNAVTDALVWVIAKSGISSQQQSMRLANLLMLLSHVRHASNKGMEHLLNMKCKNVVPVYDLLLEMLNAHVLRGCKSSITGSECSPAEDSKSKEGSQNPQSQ

| Ratio IC50 (Homo sapiens) | inhibition [4] [%] | RBA [5] [%] | IC50 [6] [nM] | inhibition [7] [%] | inhibition [9] [%] | inhibition [10] [%] | IC50 [13] [nM] | RBA [14] [%] | Papp at 3 h [18] [×10⁻⁶ cm/s] | SMILES | further results |
| --- | --- | --- | --- | --- | --- | --- | --- | --- | --- | --- | --- |
| 45 | 87 | 0.01 | 26 | 66 | 92 | 90 | 165 | 0.01 | 14 | Oc1cccc(-c2ccc3c(-c4cccnc4)c(O)ccc3c2)c1 | Cmax [1]: 16 ng/mL; IC50 (Cytochrome P450 1A2): 10 nM; half-life [2]: 0.233 h; CL (Liver microsomes [3]): 340 µL/min; tz (Rattus norvegicus [8]): 8 h; Tmax [11]: 2 h; AUC(0-t) [12]: 203 ng·h/mL; IC50 [15]: 1160 nM; Cz (Rattus norvegicus [16]): 18 ng/mL; half-life [17]: 1.5 h |
| 27 | 88 | < 0.01 | 15 | 31 | 91 | 71 | 71 | 0.01 | 19 | CS(=O)(=O)Nc1cccc(-c2c(O)ccc3cc(-c4cccc(O)c4)ccc23)c1 | Stability (Liver microsomes [19]): Stable |
